Measurements published in patent EP0382634A1, “Pyridazine derivatives, process for their preparation and pharmaceutical compositions containing them” (ELF SANOFI, priority 1989, dated 1990).

Key:
récepteurs de type M1 = target: T1, récepteurs de type M1 (Homo sapiens, UniProt P11229); assay: Muscarinic M1 receptor ligand binding (technique of Watson et al.); details: in vitro; read-out: concentration inhibitrice 50 sur le ligand des récepteurs M1
T1 construct: une spécificité marquée pour les récepteurs centraux de type M1 vis-à-vis des récepteurs périphériques de type M2; from tissue; host or cells: central (brain) tissue
T1 sequence (P11229 1-460): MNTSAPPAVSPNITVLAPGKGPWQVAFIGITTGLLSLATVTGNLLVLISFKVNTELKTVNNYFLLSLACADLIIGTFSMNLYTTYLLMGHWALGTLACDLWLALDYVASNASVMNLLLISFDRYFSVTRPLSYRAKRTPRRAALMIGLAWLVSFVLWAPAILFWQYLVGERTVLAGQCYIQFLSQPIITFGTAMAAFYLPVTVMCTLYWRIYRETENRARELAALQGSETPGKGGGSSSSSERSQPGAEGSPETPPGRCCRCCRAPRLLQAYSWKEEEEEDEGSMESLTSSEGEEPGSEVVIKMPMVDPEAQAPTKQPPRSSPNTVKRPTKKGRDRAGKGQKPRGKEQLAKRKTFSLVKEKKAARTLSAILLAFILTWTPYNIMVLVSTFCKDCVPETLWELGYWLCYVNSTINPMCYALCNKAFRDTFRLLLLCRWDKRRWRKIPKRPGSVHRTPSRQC
Excerpt: In vitro, les composés (I) ont été essayés suivant la technique décrite par Watson J.D. et al. (Life Science, 1982, 31, 2019-2029) en ce qui concerne leur activité sur les récepteurs de type M1 et selon la technique décrite par Hammer R. et al. (Nature, 1980, 283, 90,92) et Hulme E.C. et al. (Molecular Pharmacology, 1978, 14, 737-750), en ce qui concerne leur activité sur les récepteurs de type M2.

[1] = test system: rotations induites par la pirenzépine; assay: Pirenzepine-induced rotations test (Worms et al., modified: oral dosing 4 h before pirenzepine); type: in vivo; details: 3 mg/kg body weight, 4 h before pirenzepine injection
Protocol: In vivo, les composés selon l'invention ont été essayés sur le test des rotations induites par la pirenzépine décrit par Worms P. et al. (Psychopharmacology, 1987, 93, 489-493) modifié en ce que l'administration des produits par voie orale qui a eu lieu 4 heures au lieu de 30 minutes avant l'injection de pirenzépine.

Compound	IC50 (récepteurs de type M1)	inhibition des rotations induites par la pirenzépine [1]
CCCc1cc(NCC2CCCN2CC)nnc1-c1ccccc1 (stereo not drawn) [SR 96181]	30 nM	71%
Cc1cc(NCc2ccccn2)nnc1-c1ccccc1 [SR 96204 A]		67%
